“And” between values parts separate entries of the source, which are not always exact repeats. Identical values can stand only once. Like-named read-outs stand apart in the source and are kept apart here. Where no end group is shown, it is not given here.
Columns and labels:
PfCRT = test: Potential co-substrates tested for influx of VF-6 via PfCRT into the oocyte; assay type: cell-based, Plasmodium falciparum; design: key: X: Compounds that have been tested as potential co-substrates but are not required for influx of VF-6 via PfCRT into the oocyte
PfNT1 = target: T1, PfNT1 (Plasmodium falciparum, UniProt Q8IDM6); test: [3H]VF-6 transport (efflux) from injected Xenopus oocytes; assay type: cell-based; conditions: trans-inhibition, treatment 45 mM
T1 construct: expressed in transfected cells; host or cells: Xenopus laevis oocytes (stage V-VI), cRNA-injected

PfCRT^3D7 = PfCRT^3D7 (Plasmodium falciparum, UniProt Q8IBZ9); test: cell-based
Description: (§1) The characterisation of [^3H]VF-6 transport via 23 different field and laboratory-derived isoforms of PfCRT was undertaken with oocytes two days post-cRNA-injection (Figs. 3a–j, 4; Supplementary Fig. 2). The oocytes were injected with 25 nL of ND96 buffer (pH 5.5) supplemented with [^3H]VF-6 and unlabelled VF-6 to achieve estimated intracellular concentrations of 1.4 and 200 μM, respectively. Ten oocytes that had resealed at the injection site were transferred to a 5 mL polystyrene round bottom tube (In Vitro Technologies) and washed with 3.5 mL of ND96 buffer before being transferred to separate wells of a white 96-well plate (PerkinElmer). This treatment served to establish the amount of radioactivity within the oocytes immediately prior to the commencement of the transport assay. Another 10 resealed oocytes were transferred to a 5 mL tube and washed with 3.5 mL of ND96 buffer. […] The assay was terminated by removing the reaction buffer with a pipette and washing the oocytes twice with 3.5 mL of ice-cold ND96 buffer. Each oocyte was transferred to a separate well of a white 96-well plate. The oocytes were lysed by the addition of 20 μL of 10% (w/v) SDS and overnight incubation at room temperature. The lysed oocyte was then combined with 150 μL of MicroScint-40 microscintillant (PerkinElmer), the plate covered with a TopSeal-A (PerkinElmer), and the radioactivity measured with a MicroBeta^2 microplate liquid scintillation analyser (PerkinElmer). VF-6 transport was calculated by subtracting the amount of radioactivity (measured in counts per minute) present within the oocytes at the end of the incubation from that measured in the oocytes sampled immediately before the commencement of the assay. The pH-dependence of transport (Fig. 3c) was determined by injecting the oocytes with [^3H]VF-6 suspended in 25 nL ND96 buffer adjusted to pH 5.0, 5.5, 6.0 or 7.0, which corresponded to the injection of 2.5–250 fmol of H^+. The dependence of [^3H]VF-6 transport on Na^+ or Cl^− was examined by injecting the oocytes with [^3H]VF-6 suspended in the control ND96 buffer (pH 5.5) or a version of this buffer that lacked either Na^+ or Cl^− (Supplementary Fig. 2). […] The dependence of peptide transport on Ca^2+ was determined by injecting the oocytes with [^3H]VF-6 suspended in ND96 buffers that contained different concentrations of Ca^2+ (0–5 mM; Supplementary Fig. 2). […] The dependence of PfCRT-mediated transport on the membrane potential was examined by using (1) Na^+ ionophore III in conjunction with the Na^+ gradients listed in Supplementary Data 7 and (2) Cl^− ionophore III in conjunction with the Cl^− gradients listed in Supplementary Data 7 to clamp the membrane potential of the oocyte from −80 to +80 mV. […] The kinetic parameters for VF-6 transport via different isoforms of PfCRT (Figs. 3e and 4a) were determined in SigmaPlot Windows Version 11.0 by a least-squares fit of the Michaelis–Menten equation to the data.
(§2) A subset of assays measured the ability of solutes known to interact with PfCRT to either cis-inhibit, trans-inhibit or trans-stimulate [^3H]VF-6 transport. These experiments involved adding these solutes to either the cis- or trans-side of the membrane relative to [^3H]VF-6. […] At least five independent experiments were performed (on different days and using oocytes from different frogs), and within each experiment measurements were made from ten oocytes per treatment.

PfCRT^Dd2 = PfCRT^Dd2 (Plasmodium falciparum, UniProt Q9N623, A220S/I356T/K76T/M74I/N326S/N75E/Q271E/R371I); test: cell-based; conditions: trans-inhibition, treatment 45 mM
Description: as §1, §2

PfCRT^Ecu1110 = PfCRT^Ecu1110 (Plasmodium falciparum, UniProt Q9N623, A220S/I356L/K76T/N326D); test: cell-based; conditions: trans-inhibition, treatment 45 mM
Description: as §1, §2

[1] = trans-inhibition, treatment 45 mM, Experiment 1
[2] = trans-inhibition, treatment 45 mM, Experiment 2
[3] = trans-inhibition, treatment 45 mM, Experiment 3
[4] = trans-inhibition, treatment 45 mM, Experiment 4
[5] = trans-inhibition, treatment 45 mM, Experiment 5

Chain of PfCRT^Ecu1110 (Q9N623 whole entry A220S/I356L/K76T/N326D): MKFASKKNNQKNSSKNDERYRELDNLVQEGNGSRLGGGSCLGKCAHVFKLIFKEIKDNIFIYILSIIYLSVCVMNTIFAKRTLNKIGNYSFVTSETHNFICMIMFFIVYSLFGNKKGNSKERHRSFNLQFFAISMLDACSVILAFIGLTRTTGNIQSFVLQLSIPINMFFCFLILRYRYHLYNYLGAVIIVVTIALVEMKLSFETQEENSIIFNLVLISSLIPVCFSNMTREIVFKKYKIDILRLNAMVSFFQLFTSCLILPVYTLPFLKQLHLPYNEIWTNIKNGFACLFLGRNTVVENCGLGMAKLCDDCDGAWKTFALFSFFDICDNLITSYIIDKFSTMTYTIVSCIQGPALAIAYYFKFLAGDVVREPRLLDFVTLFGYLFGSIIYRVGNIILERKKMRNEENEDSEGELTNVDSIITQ
T1 sequence (Q8IDM6 whole entry): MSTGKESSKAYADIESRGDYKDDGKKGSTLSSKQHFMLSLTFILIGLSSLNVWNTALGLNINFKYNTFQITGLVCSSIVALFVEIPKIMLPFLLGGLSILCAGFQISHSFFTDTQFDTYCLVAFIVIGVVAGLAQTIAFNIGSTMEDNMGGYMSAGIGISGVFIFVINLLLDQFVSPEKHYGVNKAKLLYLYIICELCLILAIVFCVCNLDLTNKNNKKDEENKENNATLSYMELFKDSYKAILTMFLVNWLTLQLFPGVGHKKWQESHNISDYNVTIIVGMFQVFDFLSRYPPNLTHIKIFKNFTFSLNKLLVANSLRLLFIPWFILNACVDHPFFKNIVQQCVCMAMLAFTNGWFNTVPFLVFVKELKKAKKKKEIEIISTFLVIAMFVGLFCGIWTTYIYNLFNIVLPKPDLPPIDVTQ
Chain of PfCRT^Dd2 (Q9N623 whole entry A220S/I356T/K76T/M74I/N326S/N75E/Q271E/R371I): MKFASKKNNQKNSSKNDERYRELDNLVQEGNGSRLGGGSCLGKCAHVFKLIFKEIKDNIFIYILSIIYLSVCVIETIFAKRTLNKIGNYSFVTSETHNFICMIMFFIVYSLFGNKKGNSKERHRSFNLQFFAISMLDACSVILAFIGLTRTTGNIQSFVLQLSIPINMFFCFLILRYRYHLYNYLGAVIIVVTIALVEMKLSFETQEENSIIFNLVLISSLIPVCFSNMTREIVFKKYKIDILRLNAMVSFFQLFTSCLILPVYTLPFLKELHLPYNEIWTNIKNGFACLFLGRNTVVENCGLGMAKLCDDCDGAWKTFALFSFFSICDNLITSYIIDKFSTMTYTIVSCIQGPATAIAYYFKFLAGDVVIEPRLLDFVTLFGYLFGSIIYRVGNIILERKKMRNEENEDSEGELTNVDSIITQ
Chain of PfCRT^3D7 (Q8IBZ9 59-398): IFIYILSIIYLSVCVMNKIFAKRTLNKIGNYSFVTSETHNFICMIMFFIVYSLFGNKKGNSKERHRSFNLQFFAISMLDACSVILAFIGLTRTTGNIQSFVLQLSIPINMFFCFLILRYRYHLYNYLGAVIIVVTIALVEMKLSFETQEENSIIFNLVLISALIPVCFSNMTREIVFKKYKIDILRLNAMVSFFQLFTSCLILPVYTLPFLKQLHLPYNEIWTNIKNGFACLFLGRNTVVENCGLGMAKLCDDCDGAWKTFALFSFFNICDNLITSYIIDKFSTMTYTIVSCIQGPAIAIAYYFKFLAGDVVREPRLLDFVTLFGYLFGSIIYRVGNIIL

Compound | Tested as potential co-substrate but not required for influx of VF-6 via PfCRT into the oocyte (PfCRT) | [3H]VF-6 transport, PfNT1 (% PfCRT3D7 control) (PfNT1; Experiment 1) | [3H]VF-6 transport, PfNT1 (% PfCRT3D7 control) (PfNT1; Experiment 2) | [3H]VF-6 transport, PfNT1 (% PfCRT3D7 control) (PfNT1; Experiment 3) | [3H]VF-6 transport, PfNT1 (% PfCRT3D7 control) (PfNT1; Experiment 4) | [3H]VF-6 transport, PfNT1 (% PfCRT3D7 control) (PfNT1; Experiment 5) | [3H]VF-6 transport, PfCRTDd2 (% PfCRT3D7 control) (PfCRT^Dd2; Experiment 1) | [3H]VF-6 transport, PfCRTDd2 (% PfCRT3D7 control) (PfCRT^Dd2; Experiment 2) | [3H]VF-6 transport, PfCRTDd2 (% PfCRT3D7 control) (PfCRT^Dd2; Experiment 3) | [3H]VF-6 transport, PfCRTDd2 (% PfCRT3D7 control) (PfCRT^Dd2; Experiment 4) | [3H]VF-6 transport, PfCRTDd2 (% PfCRT3D7 control) (PfCRT^Dd2; Experiment 5) | [3H]VF-6 transport, PfCRTEcu1110 (% PfCRT3D7 control) (PfCRT^Ecu1110; Experiment 1) | [3H]VF-6 transport, PfCRTEcu1110 (% PfCRT3D7 control) (PfCRT^Ecu1110; Experiment 2) | [3H]VF-6 transport, PfCRTEcu1110 (% PfCRT3D7 control) (PfCRT^Ecu1110; Experiment 3) | [3H]VF-6 transport, PfCRTEcu1110 (% PfCRT3D7 control) (PfCRT^Ecu1110; Experiment 4) | [3H]VF-6 transport, PfCRTEcu1110 (% PfCRT3D7 control) (PfCRT^Ecu1110; Experiment 5) | [3H]VF-6 transport, PfCRT3D7 (% PfCRT3D7 control) (PfCRT^3D7; [1]) | [3H]VF-6 transport, PfCRT3D7 (% PfCRT3D7 control) (PfCRT^3D7; [2]) | [3H]VF-6 transport, PfCRT3D7 (% PfCRT3D7 control) (PfCRT^3D7; [3]) | [3H]VF-6 transport, PfCRT3D7 (% PfCRT3D7 control) (PfCRT^3D7; [4]) | also measured
C[C@H](N)C(=O)O [L-alanine] | X |  |  |  |  |  |  |  |  |  |  |  |  |  |  |  |  |  |  |  | 
N=C(N)NCCC[C@H](N)C(=O)O [L-arginine] | X |  |  |  |  |  |  |  |  |  |  |  |  |  |  |  |  |  |  |  | 
NC(=O)C[C@H](N)C(=O)O [L-asparagine] | X |  |  |  |  |  |  |  |  |  |  |  |  |  |  |  |  |  |  |  | 
N[C@@H](CS)C(=O)O [L-cysteine] | X |  |  |  |  |  |  |  |  |  |  |  |  |  |  |  |  |  |  |  | 
N[C@@H](CCC(=O)O)C(=O)O [L-glutamic acid] | X |  |  |  |  |  |  |  |  |  |  |  |  |  |  |  |  |  |  |  | 
DPVN [VF-6-derived peptide] |  | 3.26 % PfCRT3D7 control | 3.27 % PfCRT3D7 control | 3.74 % PfCRT3D7 control | 3.42 % PfCRT3D7 control | 3.57 % PfCRT3D7 control | 7.83 % PfCRT3D7 control | 7.93 % PfCRT3D7 control | 7.34 % PfCRT3D7 control | 7.75 % PfCRT3D7 control | 8.53 % PfCRT3D7 control | 9.56 % PfCRT3D7 control | 9.46 % PfCRT3D7 control | 8.39 % PfCRT3D7 control | 9.45 % PfCRT3D7 control | 9.93 % PfCRT3D7 control |  |  |  |  | [3H]VF-6 transport, PfCRT3D7 (% PfCRT3D7 control) (PfCRT^3D7): 26.43 % PfCRT3D7 control and 27.43 % PfCRT3D7 control and 23.23 % PfCRT3D7 control and 20.32 % PfCRT3D7 control and 20.85 % PfCRT3D7 control
DPVNF [VF-6-derived peptide] |  | 3.26 % PfCRT3D7 control | 3.36 % PfCRT3D7 control | 3.25 % PfCRT3D7 control | 3.79 % PfCRT3D7 control | 3.25 % PfCRT3D7 control | 9.35 % PfCRT3D7 control | 8.35 % PfCRT3D7 control | 9.55 % PfCRT3D7 control | 8.26 % PfCRT3D7 control | 9.66 % PfCRT3D7 control | 7.36 % PfCRT3D7 control | 8.38 % PfCRT3D7 control | 7.23 % PfCRT3D7 control | 8.43 % PfCRT3D7 control | 7.77 % PfCRT3D7 control | 21.64 % PfCRT3D7 control | 22.13 % PfCRT3D7 control | 19.38 % PfCRT3D7 control | 18.32 % PfCRT3D7 control | [3H]VF-6 transport, PfCRT3D7 (% PfCRT3D7 control) (PfCRT^3D7; [5]): 19.24 % PfCRT3D7 control
PVNF [VF-6-derived peptide] |  | 4.26 % PfCRT3D7 control | 4.27 % PfCRT3D7 control | 4.41 % PfCRT3D7 control | 3.17 % PfCRT3D7 control | 4.26 % PfCRT3D7 control | 8.23 % PfCRT3D7 control | 8.92 % PfCRT3D7 control | 7.3 % PfCRT3D7 control | 7.53 % PfCRT3D7 control | 7.44 % PfCRT3D7 control | 10.55 % PfCRT3D7 control | 12.46 % PfCRT3D7 control | 11.35 % PfCRT3D7 control | 10.58 % PfCRT3D7 control | 10.07 % PfCRT3D7 control |  |  |  |  | [3H]VF-6 transport, PfCRT3D7 (% PfCRT3D7 control) (PfCRT^3D7): 25.32 % PfCRT3D7 control and 24.64 % PfCRT3D7 control and 25.23 % PfCRT3D7 control and 25.9 % PfCRT3D7 control and 23.94 % PfCRT3D7 control
VDPVN [VF-6-derived peptide] |  | 3.27 % PfCRT3D7 control | 3.32 % PfCRT3D7 control | 3.39 % PfCRT3D7 control | 3.68 % PfCRT3D7 control | 3.32 % PfCRT3D7 control | 7.28 % PfCRT3D7 control | 7.49 % PfCRT3D7 control | 7.54 % PfCRT3D7 control | 7.59 % PfCRT3D7 control | 7.33 % PfCRT3D7 control | 6.34 % PfCRT3D7 control | 5.74 % PfCRT3D7 control | 6.34 % PfCRT3D7 control | 6.94 % PfCRT3D7 control | 6.25 % PfCRT3D7 control | 20.24 % PfCRT3D7 control | 19.6 % PfCRT3D7 control | 22.64 % PfCRT3D7 control | 22.05 % PfCRT3D7 control | [3H]VF-6 transport, PfCRT3D7 (% PfCRT3D7 control) (PfCRT^3D7; [5]): 19.48 % PfCRT3D7 control
VDPVNF [VF-6] |  | 3.58 % PfCRT3D7 control | 3.28 % PfCRT3D7 control | 3.22 % PfCRT3D7 control | 4.26 % PfCRT3D7 control | 4.11 % PfCRT3D7 control |  |  |  |  |  |  |  |  |  |  | 17.84 % PfCRT3D7 control | 18.04 % PfCRT3D7 control | 20.27 % PfCRT3D7 control | 18.57 % PfCRT3D7 control | [3H]VF-6 transport, PfCRT3D7 (% PfCRT3D7 control) (PfCRT^3D7; [5]): 17.74 % PfCRT3D7 control
